Data from paper PMC8242589, “Cardiac Safety of Kinase Inhibitors – Improving Understanding and Prediction of Liabilities in Drug Discovery Using Human Stem Cell-Derived Models” (Frontiers in Cardiovascular Medicine, 2021).
“Also recorded” adds a separate entry of the source.

What was measured:
[1] = system: hSC-CMs (Cor.4U Cardiomyocytes); assay: CardioExcyte 96 impedance and EFP recording (beating rate, base impedance); type: cell-based, human; settings: for BR / Base Imp / activity at 0.03 µM / activity at 0.1 µM / activity at 0.3 µM / activity at 1 µM: vs baseline before drug (taken as 100%); for activity at 0.03 µM / activity at 0.1 µM / activity at 0.3 µM / activity at 1 µM: Homo sapiens, Cardiomyocyte
In short: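 hSC-CM monolayers (Cor.4U), cultured 4 days at 37 °C, 5% CO2, recorded spontaneously beating; impedance sampled at 1 kHz, EFP at 10 kHz. Beating rate taken as reciprocal of inter-spike interval in EFP. Each test concentration expressed as fractional change versus pre-drug baseline (100%).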

[2] = system: hSC-CMs (Cor.4U Cardiomyocytes); assay: Apoptosis assay (CellEvent Caspase-3/7 Green, IncuCyte ZOOM kinetics over 24 h); type: cell-based, human; parameters: key to Caspase / Caspase MEAN: % of time-matched vehicle control (green object area); settings: for Caspase / activity at 0.03 µM / activity at 0.1 µM / activity at 0.3 µM / activity at 1 µM: normalized to time-matched vehicle control; for Apoptosis (caspase-3/7 activity) at the highest test concentration, in words: top / highest test concentration, over 24 h; for activity at 0.03 µM / activity at 0.1 µM / activity at 0.3 µM / activity at 1 µM: Homo sapiens, Cardiomyocyte
In short: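 Cor.4U cardiomyocytes were cultured 4 days at 5% CO2 and 37 °C, given a 2 h baseline, then treated with compound for 24 h. Caspase-3/7 green nuclear signal was imaged every 2 h, and total green object area per well (μm^2/well) was normalized to the time-matched vehicle control. At least three replicates were run per concentration.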

[3] = system: hSC-CMs (Cor.4U Cardiomyocytes); assay: ATP assay (CellTiter-Glo Luminescent Cell Viability Assay); type: cell-based, human; settings: for ATP / viability at 0.03 µM / viability at 0.1 µM / viability at 0.3 µM / viability at 1 µM: normalized to time-matched DMSO control; for viability at 0.03 µM / viability at 0.1 µM / viability at 0.3 µM / viability at 1 µM: Homo sapiens, Cardiomyocyte
In short: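 Human stem-cell-derived Cor.4U cardiomyocytes (25,000–30,000/well), cultured 4 days at 37 °C, switched to serum-free BMCC medium 12 h before dosing. Cellular ATP quantified by CellTiter-Glo luminescence and normalized to time-matched DMSO controls; at least three replicates per concentration.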

ROCK2 = settings: ref [36] (RKI-1447), [37], [38] (Fasudil), [39]–[43] (Y-27632), [44], [45] (GSK-429286); read-out: Target IC50 ROCK2; cited from earlier work
GSK-3α = settings: ref [46] (CHIR99021), [47] (SB 216763); read-out: Target IC50 GSK-3α; cited from earlier work
ROCK1 = settings: ref [36] (RKI-1447), [37], [38] (Fasudil), [39]–[43] (Y-27632), [44], [45] (GSK-429286); read-out: Target IC50 ROCK1; cited from earlier work

**Q.** Which results are given for `C[C@@H](N)C1CCC(C(=O)Nc2ccncc2)CC1.Cl.Cl` (some centres unmarked) [Y-27632]?
**A.** Effect on beating rate, in words [1]: reduced cardiomyocyte beating at both 2 h and 24 h time points; BR ([1]; 0.3 µM, 2h): 101; Base Imp ([1]; 0.3 µM, 2h): 89; BR ([1]; 0.3 µM, 24h): 95; Base Imp ([1]; 0.3 µM, 24h): 88; BR ([1]; 3 µM, 2h): 99; Base Imp ([1]; 3 µM, 2h): 89; BR ([1]; 3 µM, 24h): 100; Base Imp ([1]; 3 µM, 24h): 85; BR ([1]; 30 µM, 2h): 99; Base Imp ([1]; 30 µM, 2h): 80; BR ([1]; 30 µM, 24h): 101; Base Imp ([1]; 30 µM, 24h): 67; BR ([1]; 300 µM, 2h): 76; Base Imp ([1]; 300 µM, 2h): 61; BR ([1]; 300 µM, 24h): 68; Base Imp ([1]; 300 µM, 24h): 54; Secondary beats at 300 uM, MEAN ([1]; 300 uM, unlabelled side calculation under the 24h data): 103.939; Caspase ([2]; 0.3 µM, 2h): 119; Caspase ([2]; 0.3 µM, 24h): 94; Caspase ([2]; 3 µM, 2h): 163; Caspase ([2]; 3 µM, 24h): 129; Caspase ([2]; 30 µM, 2h): 104; Caspase ([2]; 30 µM, 24h): 163; Caspase ([2]; 300 µM, 2h): 96; Caspase ([2]; 300 µM, 24h): 306; Time of notable raise in the caspase-3/7 activity ([2]; highest test concentrations only): 12 to 18 h; Apoptosis (caspase-3/7 activity) at the highest test concentration, in words [2]: slow initial phase followed by a notable raise in the caspase-3/7 activity; ATP ([3]; 0.3 µM, 2h): 105; ATP ([3]; 0.3 µM, 24h): 100; ATP ([3]; 3 µM, 2h): 102; ATP ([3]; 3 µM, 24h): 101; ATP ([3]; 30 µM, 2h): 103; ATP ([3]; 30 µM, 24h): 103; ATP ([3]; 300 µM, 2h): 109; ATP ([3]; 300 µM, 24h): 104; IC50 (ROCK2): 0.089 µM

**Q.** What does the source list for `Cc1c[nH]c(-c2cnc(NCCNc3ccc(C#N)cn3)nc2-c2ccc(Cl)cc2Cl)n1` [CHIR99021]?
**A.** activity at 0.03 µM ([1]; 2h, read-out: BR): 99%; activity at 0.03 µM ([1]; 2h, read-out: Base Imp): 96%; activity at 0.03 µM ([1]; 24h, read-out: BR): 95%; activity at 0.03 µM ([1]; 24h, read-out: Base Imp): 97%; activity at 0.1 µM ([1]; 0.1 µM, 2h, read-out: BR): 93%; activity at 0.1 µM ([1]; 0.1 µM, 2h, read-out: Base Imp): 93%; activity at 0.1 µM ([1]; 0.1 µM, 24h, read-out: BR): 92%; activity at 0.1 µM ([1]; 0.1 µM, 24h, read-out: Base Imp): 97%; activity at 0.3 µM ([1]; 0.3 µM, 2h, read-out: BR): 90%; activity at 0.3 µM ([1]; 0.3 µM, 2h, read-out: Base Imp): 94%; activity at 0.3 µM ([1]; 0.3 µM, 24h, read-out: BR): 92%; activity at 0.3 µM ([1]; 0.3 µM, 24h, read-out: Base Imp): 91%; activity at 1 µM ([1]; 1 µM, 2h, read-out: BR): 84%; activity at 1 µM ([1]; 1 µM, 2h, read-out: Base Imp): 90%; activity at 1 µM ([1]; 1 µM, 24h, read-out: BR): 93%; activity at 1 µM ([1]; 1 µM, 24h, read-out: Base Imp): 88%; Effect on cardiomyocyte function in 3D surface plots (beating rate, base impedance, ATP), in words ([1]; hSC-CMs, 2 and 24 h): minimal functional effect; Effect on hSC-CMs function (base impedance and beating rate), in words ([1]; hSC-CMs, 2 and 24 h): did not produce functionally relevant changes; activity at 0.03 µM ([2]; 2h): 160%; activity at 0.03 µM ([2]; 24h): 109%; activity at 0.1 µM ([2]; 0.1 µM, 2h): 143%; activity at 0.1 µM ([2]; 0.1 µM, 24h): 79%; activity at 0.3 µM ([2]; 0.3 µM, 2h): 132%; activity at 0.3 µM ([2]; 0.3 µM, 24h): 80%; activity at 1 µM ([2]; 1 µM, 2h): 122%; activity at 1 µM ([2]; 1 µM, 24h): 85%; Apoptosis (caspase-3/7 activation), result in words ([2]; hSC-CMs, monitored over 24 h): did not have any functionally-relevant effect; viability at 0.03 µM ([3]; 2h): 87%; viability at 0.03 µM ([3]; 24h): 97%; viability at 0.1 µM ([3]; 0.1 µM, 2h): 87%; viability at 0.1 µM ([3]; 0.1 µM, 24h): 95%; viability at 0.3 µM ([3]; 0.3 µM, 2h): 93%; viability at 0.3 µM ([3]; 0.3 µM, 24h): 92%; viability at 1 µM ([3]; 1 µM, 2h): 99%; viability at 1 µM ([3]; 1 µM, 24h): 97%; Effect on ATP level, in words ([3]; hSC-CMs, up to the highest test concentrations): did not impact the ATP level; IC50 (GSK-3α): 0.01 µM

**Q.** For `CC1=C(C(=O)Nc2cc3cn[nH]c3cc2F)C(c2ccc(C(F)(F)F)cc2)CC(=O)N1` (centres unmarked) [GSK-429286], which BR ([1]; 0.01 µM, 2h) is on record?
**A.** 102

**Q.** What about the “Base Imp” value ([1]; 0.01 µM, 2h) of the same molecule?
**A.** 99

**Q.** What about the BR ([1]; 0.01 µM, 24h) of the same molecule?
**A.** 100

**Q.** What about the “Base Imp” value ([1]; 0.01 µM, 24h) of the same molecule?
**A.** 92

**Q.** What about the BR ([1]; 0.1 µM, 2h) of the same molecule?
**A.** 102

**Q.** And the “Base Imp” value ([1]; 0.1 µM, 2h)?
**A.** 91

**Q.** And the BR ([1]; 0.1 µM, 24h)?
**A.** 106

**Q.** And the “Base Imp” value ([1]; 0.1 µM, 24h)?
**A.** 85

**Q.** And the BR ([1]; 1 µM, 2h)?
**A.** 105

**Q.** And the “Base Imp” value ([1]; 1 µM, 2h)?
**A.** 83

**Q.** And the BR ([1]; 1 µM, 24h)?
**A.** 109

**Q.** And the “Base Imp” value ([1]; 1 µM, 24h)?
**A.** 72

**Q.** And the BR ([1]; 10 µM, 2h)?
**A.** 98

**Q.** And the “Base Imp” value ([1]; 10 µM, 2h)?
**A.** 69

**Q.** What about the BR ([1]; 10 µM, 24h) of the same molecule?
**A.** 88

**Q.** What about the “Base Imp” value ([1]; 10 µM, 24h) of the same molecule?
**A.** 58

**Q.** And the “Effect on base impedance, in words” value ([1]; hSC-CMs, 2 and 24 h)?
**A.** concentration-and time-dependent decrease in base impedance; also recorded: concentration-dependent effects

**Q.** And the Caspase ([2]; 0.01 µM, 2h)?
**A.** 95

**Q.** And the Caspase ([2]; 0.01 µM, 24h)?
**A.** 97

**Q.** What about the Caspase ([2]; 0.1 µM, 2h) of the same molecule?
**A.** 109

**Q.** And the Caspase ([2]; 0.1 µM, 24h)?
**A.** 103

**Q.** What about the Caspase ([2]; 1 µM, 2h) of the same molecule?
**A.** 104

**Q.** And the Caspase ([2]; 1 µM, 24h)?
**A.** 105

**Q.** And the Caspase ([2]; 10 µM, 2h)?
**A.** 116

**Q.** And the Caspase ([2]; 10 µM, 24h)?
**A.** 127

**Q.** What about the “Apoptosis (caspase-3/7 activity) at the highest test concentration, in words” value [2] of the same molecule?
**A.** marginal effects

**Q.** What about the ATP ([3]; 0.01 µM, 2h) of the same molecule?
**A.** 101

**Q.** And the ATP ([3]; 0.01 µM, 24h)?
**A.** 101

**Q.** What about the ATP ([3]; 0.1 µM, 2h) of the same molecule?
**A.** 101

**Q.** What about the ATP ([3]; 0.1 µM, 24h) of the same molecule?
**A.** 96

**Q.** And the ATP ([3]; 1 µM, 2h)?
**A.** 102

**Q.** And the ATP ([3]; 1 µM, 24h)?
**A.** 96

**Q.** What about the ATP ([3]; 10 µM, 2h) of the same molecule?
**A.** 104

**Q.** What about the ATP ([3]; 10 µM, 24h) of the same molecule?
**A.** 102

**Q.** What about the IC50 (ROCK1) of the same molecule?
**A.** 0.014 µM

**Q.** And the IC50 (ROCK2)?
**A.** 0.063 µM
